Read-outs that look alike come from different tables or passages of the source.
How the values were obtained:
HCV replicon cells = assay: HCV replicon FRET assay; type: cell-based
Method: FRET Assay Preparation. The HCV FRET screening assay was performed in 96-well cell culture plates. The FRET peptide (Anaspec, Inc.) (Taliani et al., Anal. Biochem. 1996, 240, 60-67) contains a fluorescence donor, EDANS, near one end of the peptide and an acceptor, DABCYL, near the other end. The fluorescence of the peptide is quenched by […] resonance energy transfer (RET) between the donor and the acceptor, but as the NS3 protease cleaves the peptide the products are released from RET quenching and the fluorescence of the donor becomes apparent. The assay reagent was made as follows: 5× cell Luciferase cell culture lysis reagent from Promega (#E153A) diluted to 1× with dH2O, NaCl added to 150 mM final, the FRET peptide diluted to 20 μM final from a 2 mM stock.
To prepare plates, HCV replicon cells, with or without a Renilla luciferase reporter gene, were trypsinized and plated in a 96-well plate with titrated test compounds added in columns 3 through 12; columns 1 and 2 contained a control compound (HCV control inhibitor), and the bottom row contained cells with DMSO only. The plates were then placed in a CO2 incubator at 37° C.
Assays. Subsequent to addition of the test compounds described above (FRET Assay Preparation), at various times the plate was removed and Alamar blue solution (Trek Diagnostics, #00-100) was added to measure cellular toxicity. After reading in a Cytoflour 4000 instrument (PE Biosystems), plates were rinsed with PBS and then used for FRET assay by the addition of 30 ul of the FRET peptide assay reagent described above (FRET Assay Preparation) per well. The plate was then placed into the Cytoflour 4000 instrument which had been set to 340 excite/490 emission, automatic mode for up to 20 cycles and the plate read in a kinetic mode. Typically, the signal to noise using an endpoint analysis after the reads was at least three-fold. Alternatively, after Alamar blue reading, plates were rinsed with PBS, then used for luciferase assay using the Promega Dual-Glo Luciferase Assay System or the Promega EnduRen Live Cell Substrate assay.
Compound analysis was performed by quantification of the relative HCV replicon inhibition and the relative cytotoxicity values. To calculate cytoxicity values, the average Alamar Blue fluorescence signals from the control wells were set as 100% non-toxic. The individual signals in each of the compound test wells were then divided by the average control signal and multiplied by 100% to determine […]. To calculate the HCV replicon inhibition values, an average background value was obtained from the two wells containing the highest amount of HCV control inhibitor at the end of the assay period. These numbers were similar to those obtained from naïve Huh-7 cells. The background numbers were then subtracted from the average signal obtained from the control wells and this number was used as 100% activity. The individual signals in each of the compound test wells were then divided by the averaged control values after background subtraction and multiplied by 100% to determine percent activity. EC50 values were calculated as the concentration which caused a 50% reduction in FRET or luciferase activity. The two numbers generated for the compound plate, percent cytoxicity and percent activity, were used to determine compounds of interest for further analysis.

HCV NS5B = biological target: T1, HCV NS5B (Hepatitis C virus genotype 1b, UniProt Q9WMX2); assay: Modified HCV NS5B RdRp enzyme assay (preincubation protocol); type: biochemical
T1 construct: The cDNA encoding the NS5B protein of HCV, genotype 1b; made in house; host or cells: E. coli BL21(DE3)
Method: HCV NS5B RdRp cloning, expression, and purification. The cDNA encoding the NS5B protein of HCV, genotype 1b, was cloned into the pET21a expression vector. The protein was expressed with an 18 amino acid C-terminal truncation to enhance the solubility. The E. coli competent cell line BL21(DE3) was used for expression of the protein. Cultures were grown at 37° C. for ˜4 hours until the cultures reached an optical density of 2.0 at 600 nm. The cultures were cooled to 20° C. and induced with 1 mM IPTG. Fresh ampicillin was added to a final concentration of 50 μg/ml and the cells were grown overnight at 20° C.
Cell pellets (3L) were lysed for purification to yield 15-24 mgs of purified NS5B. The lysis buffer consisted of 20 mM Tris-HCl, pH 7.4, 500 mM NaCl, 0.5% triton X-100, 1 mM DTT, 1 mM EDTA, 20% glycerol, 0.5 mg/ml lysozyme, 10 mM MgCl2, 15 ug/ml deoxyribonuclease I, and Complete™ protease inhibitor tablets (Roche). After addition of the lysis buffer, frozen cell pellets were resuspended using a tissue homogenizer. To reduce the viscosity of the sample, aliquots of the lysate were sonicated on ice using a microtip attached to a Branson sonicator. The sonicated lysate was centrifuged at 100,000×g for 1 hr at 4° C. and filtered through a 0.2 μm filter unit (Corning).
The protein was purified using two sequential chromatography steps: Heparin sepharose CL-6B and polyU sepharose 4B (Pharmacia). The chromatography buffers were identical to the lysis buffer but contained no lysozyme, deoxyribonuclease I, MgCl2 or protease inhibitor and the NaCl concentration of the buffer was adjusted according to the requirements for charging the protein onto the column. Each column was eluted with a NaCl gradient which varied in length from 5-50 column volumes depending on the column type. After the final chromatography step, the resulting purity of the enzyme is >90% based on SDS-PAGE analysis. The enzyme was aliquoted and stored at −80° C.
Standard HCV NS5B RdRp enzyme assay. HCV RdRp genotype 1b assays were run in a final volume of 60 μl in 96 well plates (Corning 3600). The assay buffer is composed of 20 mM Hepes, pH 7.5, 2.5 mM KCl, 2.5 mM MgCl2, 1 mM DTT, 1.6 U RNAse inhibitor (Promega N2515), 0.01 mg/ml BSA (Sigma B6917), and 2% glycerol. All compounds were serially diluted (3-fold) in DMSO and diluted further in water such that the final concentration of DMSO in the assay was 2%. HCV RdRp genotype 1b enzyme was used at a final concentration of 28 nM. A polyA template was used at 6 nM, and a biotinylated oligo-dT12 primer was used at 180 nM final concentration. Template was obtained commercially (Amersham 27-4110). Biotinylated primer was prepared by Sigma Genosys. 3H-UTP was used at 0.6 μCi (0.29 μM total UTP). Reactions were initiated by the addition of enzyme, incubated at 30° C. for 60 min, and stopped by adding 25 μl of 50 mM EDTA containing SPA beads (4 μg/μl, Amersham RPNQ 0007). Plates were read on a Packard Top Count NXT after >1 hr incubation at room temperature.
Modified HCV NS5B RdRp enzyme assay. A modified enzyme assay was performed essentially as described for the standard enzyme assay except for the following: The biotinylated oligo dT12 primer was precaptured on streptavidin-coated SPA beads by mixing primer and beads in assay buffer and incubating at room temperature for one hour. Unbound primer was removed after centrifugation. The primer-bound beads were resuspended in 20 mM Hepes buffer, pH 7.5 and used in the assay at final concentrations of 20 nM primer and 0.67 μg/μl beads. Order of addition in the assay: enzyme (1.75 nM) was added to diluted compound followed by the addition of a mixture of template (0.36 nM), 3H-UTP (0.6 μCi, 0.29 μM), and primer-bound beads, to initiate the reaction; concentrations given are final. Reactions were allowed to proceed for 4 hours at 30° C.
IC50 values for compounds were determined using seven different [I]. […]

[1] = preincubation protocol, read-out: IC50

T1 sequence (Q9WMX2 2420-2992): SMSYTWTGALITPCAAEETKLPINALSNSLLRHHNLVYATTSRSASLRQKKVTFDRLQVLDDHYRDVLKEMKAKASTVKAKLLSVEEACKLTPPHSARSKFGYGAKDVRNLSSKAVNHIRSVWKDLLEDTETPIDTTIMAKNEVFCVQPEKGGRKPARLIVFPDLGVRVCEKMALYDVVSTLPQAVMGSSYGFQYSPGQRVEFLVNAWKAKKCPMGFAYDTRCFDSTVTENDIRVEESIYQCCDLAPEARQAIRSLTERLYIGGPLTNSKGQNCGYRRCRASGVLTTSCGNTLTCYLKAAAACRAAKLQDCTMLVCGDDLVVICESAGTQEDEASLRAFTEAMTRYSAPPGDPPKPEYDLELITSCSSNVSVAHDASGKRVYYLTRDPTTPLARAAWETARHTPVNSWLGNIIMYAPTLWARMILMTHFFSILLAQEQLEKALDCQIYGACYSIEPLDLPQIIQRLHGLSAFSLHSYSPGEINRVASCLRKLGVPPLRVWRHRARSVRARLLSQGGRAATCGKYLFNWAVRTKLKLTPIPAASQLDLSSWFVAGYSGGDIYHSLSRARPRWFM

Row | Compound | EC50 (HCV replicon cells; Hepatitis C virus) | IC50 (HCV NS5B) | other results
1 | COc1ccc2c(c1)C1CC1(C(=O)C1C3CCC1CC3)Cn1c-2c(C2CCCCC2)c2ccc(C(=O)NS(=O)(=O)N(C)C)cc21 (stereo not drawn) |  |  | EC50 (HCV replicon cells; Hepatitis C virus, FRET assay, read-out: EC50): 4.58 to 500 nM; IC50 (HCV NS5B; [1]): 4.58 to 500 nM
2 | COc1ccc2c(c1)C1CC1(C(=O)N1C3CCC1CC(=O)C3)Cn1c-2c(C2CCCCC2)c2ccc(C(=O)NS(=O)(=O)N(C)C)cc21 (stereo not drawn) | 4.58 to 500 nM | 4.58 to 500 nM | 
3 | COc1ccc2c(c1)C1CC1(C(=O)N1CC3CCC(C1)O3)Cn1c-2c(C2CCCCC2)c2ccc(C(=O)NS(=O)(=O)N(C)C)cc21 (stereo not drawn) | 4.58 to 500 nM |  | IC50 (HCV NS5B; [1]): 4.58 to 500 nM
4 | COc1ccc2c(c1)C1CC1(C(=O)N1C3CCC1CC(N(CCN(C)C)Cc1ccccc1)C3)Cn1c-2c(C2CCCCC2)c2ccc(C(=O)NS(=O)(=O)N3CCC3)cc21 (stereo not drawn) | 4.58 to 500 nM | 4.58 to 500 nM | 
5 | COc1ccc2c(c1)C1CC1(C(=O)N1C3CCC1CC(NCc1ccccc1)C3)Cn1c-2c(C2CCCCC2)c2ccc(C(=O)NS(=O)(=O)N3CCC3)cc21 (stereo not drawn) | 4.58 to 500 nM | 4.58 to 500 nM | 
6 | COc1ccc2c(c1)C1CC1(C(=O)N1C3CCC1CC(N(C)Cc1ccccc1)C3)Cn1c-2c(C2CCCCC2)c2ccc(C(=O)NS(=O)(=O)N3CCC3)cc21 (stereo not drawn) | 4.58 to 500 nM | 4.58 to 500 nM | 
7 | COc1ccc2c(c1)C1CC1(C(=O)N1C3CCC1CC(N(CCN(C)C)Cc1ccccc1)C3)Cn1c-2c(C2CCCCC2)c2ccc(C(=O)NS(=O)(=O)C3CC3)cc21 (stereo not drawn) | 4.58 to 500 nM | 4.58 to 500 nM | 
8 | COc1ccc2c(c1)C1CC1(C(=O)N1C3CCC1CC(O)(C1CC1)C3)Cn1c-2c(C2CCCCC2)c2ccc(C(=O)NS(=O)(=O)N(C)C)cc21 (stereo not drawn) | 4.58 to 500 nM | 4.58 to 500 nM | 
9 | COc1ccc2c(c1)C1CC1(C(=O)N1C3CCC1CC(NC(C)C)C3)Cn1c-2c(C2CCCCC2)c2ccc(C(=O)NS(=O)(=O)N(C)C)cc21 (stereo not drawn) | 4.58 to 500 nM | 4.58 to 500 nM | 
10 | COc1ccc2c(c1)C1CC1(C(=O)N1C3CCC1CC(=O)C3)Cn1c-2c(C2CCCCC2)c2ccc(C(=O)NS(C)(=O)=O)cc21 (stereo not drawn) | 4.58 to 500 nM | 4.58 to 500 nM | 
11 | COc1ccc2c(c1)C1CC1(C(=O)N1C3CCC1CC(=O)C3)Cn1c-2c(C2CCCCC2)c2ccc(C(=O)NS(=O)(=O)C(C)C)cc21 (stereo not drawn) | 4.58 to 500 nM | 4.58 to 500 nM | 
12 | CCC(C)S(=O)(=O)NC(=O)c1ccc2c(C3CCCCC3)c3n(c2c1)CC1(C(=O)N2C4CCC2CC(N(C)Cc2ccccc2)C4)CC1c1cc(OC)ccc1-3 (stereo not drawn) | 4.58 to 500 nM | 4.58 to 500 nM | 
13 | COc1ccc2c(c1)C1CC1(C(=O)N1C3CCC1CC(NCc1ccccc1)C3)Cn1c-2c(C2CCCCC2)c2ccc(C(=O)NS(=O)(=O)C(C)C)cc21 (stereo not drawn) | 4.58 to 500 nM | 4.58 to 500 nM | 
14 | CCC(C)S(=O)(=O)NC(=O)c1ccc2c(C3CCCCC3)c3n(c2c1)CC1(C(=O)N2C4CCC2CC(NC)C4)CC1c1cc(OC)ccc1-3 (stereo not drawn) | 4.58 to 500 nM | 4.58 to 500 nM | 
15 | COc1ccc2c(c1)C=C(C(=O)N1C3CCCC1COC3)Cn1c-2c(C2CCCCC2)c2ccc(C(=O)NS(=O)(=O)C3CC3)cc21 | 4.58 to 500 nM | 4.58 to 500 nM | 
16 | COc1ccc2c(c1)C1CC1(C(=O)N1C3CCC1CC(O)(C(F)(F)F)C3)Cn1c-2c(C2CCCCC2)c2ccc(C(=O)NS(=O)(=O)N(C)C)cc21 (stereo not drawn) | 4.58 to 500 nM | 4.58 to 500 nM | 
17 | COc1ccc2c(c1)[C@@H]1C[C@]1(C(=O)N1C3COCC1COC3)Cn1c-2c(C2CCCCC2)c2ccc(C(=O)NS(=O)(=O)N(C)C)cc21 | 4.58 to 500 nM | 4.58 to 500 nM | 
18 | COc1ccc2c(c1)[C@@H]1C[C@]1(C(=O)N1C3CCC(O)C1CCC3O)Cn1c-2c(C2CCCCC2)c2ccc(C(=O)NS(=O)(=O)N(C)C)cc21 (stereo partly drawn) | 4.58 to 500 nM | 4.58 to 500 nM | 
19 | COc1ccc2c(c1)C1CC1(C(=O)N1C3COCC1COC3)Cn1c-2c(C2CCCCC2)c2ccc(C(=O)NS(=O)(=O)C(C)C)cc21 (stereo not drawn) | 4.58 to 500 nM | 4.58 to 500 nM | 
20 | CCC(C)S(=O)(=O)NC(=O)c1ccc2c(C3CCCCC3)c3n(c2c1)CC1(C(=O)N2C4CCC[C@@H]2COC4)CC1c1cc(OC)ccc1-3 (stereo partly drawn) | 4.58 to 500 nM | 4.58 to 500 nM | 
21 | COc1ccc2c(c1)C1CC1(C(=O)N1C3COCC1COC3)Cn1c-2c(C2CCCCC2)c2ccc(C(=O)NS(=O)(=O)CC(C)C)cc21 (stereo not drawn) | 4.58 to 500 nM | 4.58 to 500 nM | 
22 | COc1ccc2c(c1)C1CC1(C(=O)N1C3CCC[C@@H]1COC3)Cn1c-2c(C2CCCCC2)c2ccc(C(=O)NS(=O)(=O)CC(C)C)cc21 (stereo partly drawn) | 4.58 to 500 nM | 4.58 to 500 nM | 
23 | COc1ccc2c(c1)C1CC1(C(=O)N1C3CCC1CC(NCC1CC1)C3)Cn1c-2c(C2CCCCC2)c2ccc(C(=O)NS(=O)(=O)N(C)C)cc21 (stereo not drawn) [drawing 23] | 4.58 to 500 nM | 4.58 to 500 nM | 
24 | COc1ccc2c(c1)C1CC1(C(=O)N1C3CCC1CC(NCC1CC1)C3)Cn1c-2c(C2CCCCC2)c2ccc(C(=O)NS(=O)(=O)N(C)C)cc21 (stereo not drawn) [drawing 26] |  |  | EC50 (HCV replicon cells; FRET assay): 4.58 to 500 nM; IC50 (HCV NS5B; preincubation protocol): 4.58 to 500 nM
